Data reported in patent US20040166058A1, “Ethylenedicysteine (EC)-drug conjugates, compositions and methods for tissue specific disease imaging” (Board of Regents, The University of Texas System, priority 2002, published 2004).

What was measured:
[1] = tested on: 13762 tumor cell line mammary tumor; assay: Gamma scintigraphic imaging in Fischer 344 rats with 13762 mammary tumor; type: in vivo; conditions: 0.5, 2 and 4 hours after i.v. injection of 300 μCi
Experimental: Female Fischer 344 rats (250-275 g each) (Harlan, Inc., Indianapolis, Ind.) were inoculated with mammary tumor cells by one author from the 13762 tumor cell line (s.c. 10^6 cells/rat, a tumor cell line specific to Fischer rats). After 8-10 days, tumor volumes of 0.3-0.6 cm were measured. Scintigraphic images were obtained 0.5, 2 and 4 hours after i.v. injection of 300 μCi of ^99mTc-EC or ^99mTc-EC-DG (n=3/agent, total 6 rats). ROI between tumor tissue and muscle (at symmetric site) was used to determine tumor/non-tumor ratios. The smallest tumor volume that could be detected by ^99mTc-EC-DG was 3 mm.

[2] = In vitro cell culture of ^99mTc-EC-DG with or without transition chelators; type: cell-based; conditions: kit formulation
Description: It may also be important to include an antioxidant and a transition chelator in the composition to prevent oxidation of the ethylenedicysteine. For example, the antioxidant may be vitamin C (ascorbic acid). However, other antioxidants known to those of ordinary skill in the art, such as tocopherol, pyridoxine, thiamine, or rutin, may also be used. Any transition chelator known to those of ordinary skill in the art may be used in conjunction with the present invention. Examples of transition chelators include glucoheptonate, gluconate, glucarate, citrate, and tartarate.

[3] = tested on: human lung cancer cells (A549 tumor cell line); assay: Biodistribution in lung tumor-bearing nude mice; type: in vivo, athymic nude mice; conditions: for Biodistribution Blood / Biodistribution Brain / Biodistribution Heart / Biodistribution Intestine / Biodistribution Kidney / Biodistribution Liver / Biodistribution Lung / Biodistribution Muscle / Biodistribution Spleen / Biodistribution Stomach / Biodistribution Thyroid / Biodistribution Tumor / Tumor/Blood / Tumor/Lung / Tumor/Muscle: intravenously
Experimental: Female athymic nude mice (NCr-nu/nu, NCI, Bethasda, Md.) were inoculated with human lung cancer cells (A549 tumor cell line, 3×10^6 cells/mouse, intramuscular) by one author in the mid-dorsal region. After the tumor reached 6 mm, separate biodistribution studies using ^99mTc-EC-DG and 18F-FDG were conducted. Each received ^99mTc-EC-DG or 18F-FDG intravenously (n=3/time point). The injection activity was 1-3 μCi/mouse. The injected mass of ^99mTc-EC-DG was 0.2 mg/rodent.

stability with or without transition chelators (gluconate and glucarate) [2]: does not interfere with the stability | Tumor/Blood ([3]; 30 min): 0.499 ± 0.022 | Tumor/Lung ([3]; 30 min): 0.769 ± 0.047 | Tumor/Muscle ([3]; 30 min): 3.352 ± 0.749 | Tumor/Blood ([3]; 2 h): 0.424 ± 0.022 | Tumor/Lung ([3]; 2 h): 0.587 ± 0.046 | Tumor/Muscle ([3]; 2 h): 2.754 ± 0.120 | Tumor/Blood ([3]; 4 h): 0.502 ± 0.120 | Tumor/Lung ([3]; 4 h): 0.640 ± 0.120 | Tumor/Muscle ([3]; 4 h): 2.795 ± 0.982
Structure (SMILES): O=C(NC1C(O)OC(CO)C(O)C1O)C1C[S][99Tc]23(=[O])[S]CC(C(=O)NC4C(O)OC(CO)C(O)C4O)[N]2CC[N]13 (stereo not drawn) [^99mTc-EC-DG]
organs visualized [1]: Heart, kidneys, liver, and bladder were visualized | Biodistribution Blood ([3]; 30 min): 1.607 ± 0.389 % of injected dose per gram of tissue weight | Biodistribution Brain ([3]; 30 min): 0.058 ± 0.008 % of injected dose per gram of tissue weight | Biodistribution Heart ([3]; 30 min): 0.611 ± 0.193 % of injected dose per gram of tissue weight | Biodistribution Intestine ([3]; 30 min): 0.510 ± 0.093 % of injected dose per gram of tissue weight | Biodistribution Kidney ([3]; 30 min): 6.726 ± 1.842 % of injected dose per gram of tissue weight | Biodistribution Liver ([3]; 30 min): 5.674 ± 2.089 % of injected dose per gram of tissue weight | Biodistribution Lung ([3]; 30 min): 1.048 ± 0.259 % of injected dose per gram of tissue weight | Biodistribution Muscle ([3]; 30 min): 0.264 ± 0.072 % of injected dose per gram of tissue weight | Biodistribution Spleen ([3]; 30 min): 3.240 ± 1.709 % of injected dose per gram of tissue weight | Biodistribution Stomach ([3]; 30 min): 0.540 ± 0.113 % of injected dose per gram of tissue weight | Biodistribution Thyroid ([3]; 30 min): 0.929 ± 0.212 % of injected dose per gram of tissue weight | Biodistribution Tumor ([3]; 30 min): 0.787 ± 0.163 % of injected dose per gram of tissue weight | Biodistribution Blood ([3]; 2 h): 0.977 ± 0.267 % of injected dose per gram of tissue weight | Biodistribution Brain ([3]; 2 h): 0.042 ± 0.006 % of injected dose per gram of tissue weight | Biodistribution Heart ([3]; 2 h): 0.336 ± 0.080 % of injected dose per gram of tissue weight | Biodistribution Intestine ([3]; 2 h): 0.417 ± 0.110 % of injected dose per gram of tissue weight | Biodistribution Kidney ([3]; 2 h): 5.687 ± 1.540 % of injected dose per gram of tissue weight | Biodistribution Liver ([3]; 2 h): 5.807 ± 1.708 % of injected dose per gram of tissue weight | Biodistribution Lung ([3]; 2 h): 0.721 ± 0.210 % of injected dose per gram of tissue weight | Biodistribution Muscle ([3]; 2 h): 0.148 ± 0.039 % of injected dose per gram of tissue weight | Biodistribution Spleen ([3]; 2 h): 4.205 ± 1.374 % of injected dose per gram of tissue weight | Biodistribution Stomach ([3]; 2 h): 0.439 ± 0.138 % of injected dose per gram of tissue weight | Biodistribution Thyroid ([3]; 2 h): 0.665 ± 0.207 % of injected dose per gram of tissue weight | Biodistribution Tumor ([3]; 2 h): 0.415 ± 0.123 % of injected dose per gram of tissue weight | Biodistribution Blood ([3]; 4 h): 0.787 ± 0.152 % of injected dose per gram of tissue weight | Biodistribution Brain ([3]; 4 h): 0.042 ± 0.006 % of injected dose per gram of tissue weight | Biodistribution Heart ([3]; 4 h): 0.318 ± 0.071 % of injected dose per gram of tissue weight | Biodistribution Intestine ([3]; 4 h): 0.374 ± 0.073 % of injected dose per gram of tissue weight | Biodistribution Kidney ([3]; 4 h): 4.318 ± 0.890 % of injected dose per gram of tissue weight | Biodistribution Liver ([3]; 4 h): 6.656 ± 1.786 % of injected dose per gram of tissue weight | Biodistribution Lung ([3]; 4 h): 0.606 ± 0.128 % of injected dose per gram of tissue weight | Biodistribution Muscle ([3]; 4 h): 0.147 ± 0.022 % of injected dose per gram of tissue weight | Biodistribution Spleen ([3]; 4 h): 5.933 ± 3.194 % of injected dose per gram of tissue weight | Biodistribution Stomach ([3]; 4 h): 0.541 ± 0.119 % of injected dose per gram of tissue weight | Biodistribution Thyroid ([3]; 4 h): 0.692 ± 0.119 % of injected dose per gram of tissue weight | Biodistribution Tumor ([3]; 4 h): 0.414 ± 0.161 % of injected dose per gram of tissue weight | tumor/muscle and tumor/brain ratios, ^99mTc-EC-DG versus 18F-FDG ([3]; as a function of time): higher tumor/muscle and tumor/brain ratios
